How the values were obtained:
SA-HRP = SA-HRP (Armoracia rusticana, UniProt P00433); assay: Dot blot application of water soluble azine enhancers (Example 8); assay type: biochemical, horseradish
[1] = target: horseradish peroxidase labeled streptavidin (SA-HRP) (Armoracia rusticana, UniProt P00433); assay: Blot application comparing enhancer working solutions (Example 7); assay type: biochemical; details: after the 30 minute reexposure, enhancer: 1c […] (present invention) or 52 μM (low), 1b 52 μM, 3 13.5 μM
[2] = 50 μM enhancer with 1 mM Sodium Luminol
[3] = […] enhancer with 5 mM Sodium Luminol

Relative Intensity 2 pg SA-HRP [1]	Relative Intensity 5 pg SA-HRP [1]	Relative Intensity 20 pg SA-HRP [1]	Substance	Net Relative Intensity at 10 pg SA-HRP (SA-HRP; [2])	Net Relative Intensity at 100 pg SA-HRP (SA-HRP; [2])	Net Relative Intensity at 10 pg SA-HRP (SA-HRP; [3])	Net Relative Intensity at 100 pg SA-HRP (SA-HRP; [3])
–	–	–	2-chloro-10 (3 trimethyl amino propyl)-phenothiazonan bromide [Azine Enhancer 1d]	0	0	225,632	311,048
0	106,776	598,072	Phenylindophenol/indophenol [Phenolic Enhancer 3]	–	–	–	–
